Test system: NCI60 cell lines
Assay: NCI60 cell line panel
Format: cell-based, human
Procedure: The Developmental Therapeutics Program (DTP) of NCI has evaluated more than 100,000 pure compounds and more than 34,000 crude extracts against the panel of human tumor cell lines. The resultant data are analyzed using a program called COMPARE, that rank the entire database of tested compounds in the order of the similarity of the responses. […] Thus, the NCI60 databases is highly useful to the cancer research community. Further experiments were conducted that tested some of the active compounds in a panel of NCI60 cell line to relate our compounds with some known inhibitors to have an idea of possible mechanism of action.
In order to understand the selectivity of these compounds in different cancer types, some of them were tested against a panel of 60 cell lines (Table XXXIX).

[1] = Non-Small Cell Lung Cancer, A549/ATCC
[2] = Non-Small Cell Lung Cancer, EKVX
[3] = Non-Small Cell Lung Cancer, HOP-62
[4] = Non-Small Cell Lung Cancer, HOP-92
[5] = Non-Small Cell Lung Cancer, NCI-H23
[6] = Non-Small Cell Lung Cancer, NCI-H226
[7] = Non-Small Cell Lung Cancer, NCI-H322M
[8] = Non-Small Cell Lung Cancer, NCI-H460
[9] = Non-Small Cell Lung Cancer, NCI-H522

Q: Which results are given for `CCN(CC)CCCC(C)Nc1cnc(C(=O)Nc2cccc3ccc(OC)nc23)cn1` (stereo not shown) [J11, 5-((5-(diethylamino)pentan-2-yl)amino)-N-(2-methoxyquinolin-8-yl)pyrazine-2-carboxamide]?
A: GIPRCNT: % Growth inhibition (Breast Cancer, BT-549): 83.22%; GIPRCNT: % Growth inhibition (Breast Cancer, HS 578T): 69.51%; GIPRCNT: % Growth inhibition (Breast Cancer, MCF7): 20.06%; GIPRCNT: % Growth inhibition (Breast Cancer, MDA-MB-231/ATCC): 71.85%; GIPRCNT: % Growth inhibition (Breast Cancer, MDA-MB-468): 79.15%; GIPRCNT: % Growth inhibition (Breast Cancer, T-47D): 83.88%; GIPRCNT: % Growth inhibition (CNS Cancer, SF-268): 63.03%; GIPRCNT: % Growth inhibition (CNS Cancer, SF-295): 100.8191%; GIPRCNT: % Growth inhibition (CNS Cancer, SF-539): 0.4567%; GIPRCNT: % Growth inhibition (CNS Cancer, SNB-19): 94.85%; GIPRCNT: % Growth inhibition (CNS Cancer, SNB-75): 75.89%; GIPRCNT: % Growth inhibition (CNS Cancer, U251): 56.1223%; GIPRCNT: % Growth inhibition (Colon Cancer, COLO 205): 71.37%; GIPRCNT: % Growth inhibition (Colon Cancer, HCC-2998): 90.92%; GIPRCNT: % Growth inhibition (Colon Cancer, HCT-15): −25.625%; GIPRCNT: % Growth inhibition (Colon Cancer, HCT-116): −36.0085%; GIPRCNT: % Growth inhibition (Colon Cancer, HT29): −47.1759%; GIPRCNT: % Growth inhibition (Colon Cancer, KM12): 36.32%; GIPRCNT: % Growth inhibition (Colon Cancer, SW-620): 2.118%; GIPRCNT: % Growth inhibition (Leukemia, CCRF-CEM): −7.649%; GIPRCNT: % Growth inhibition (Leukemia, HL-60(TB)): 72.3913%; GIPRCNT: % Growth inhibition (Leukemia, K-562): −57.0747%; GIPRCNT: % Growth inhibition (Leukemia, MOLT-4): 53.43%; GIPRCNT: % Growth inhibition (Leukemia, RPMI-8226): 23.8%; GIPRCNT: % Growth inhibition (Leukemia, SR): −5.71%; GIPRCNT: % Growth inhibition (Melanoma, LOX IMVI): −89.8952%; GIPRCNT: % Growth inhibition (Melanoma, M14): −75.6475%; GIPRCNT: % Growth inhibition (Melanoma, MALME-3M): −69.7804%; GIPRCNT: % Growth inhibition (Melanoma, MDA-MB-435): −58.2282%; GIPRCNT: % Growth inhibition (Melanoma, SK-MEL-2): 70.47%; GIPRCNT: % Growth inhibition (Melanoma, SK-MEL-5): 5.402%; GIPRCNT: % Growth inhibition (Melanoma, UACC-62): −57.758%; GIPRCNT: % Growth inhibition (Melanoma, UACC-257): −39.0086%; GIPRCNT: % Growth inhibition [1]: 81.18%; GIPRCNT: % Growth inhibition [2]: 104.0141%; GIPRCNT: % Growth inhibition [3]: 94.18%; GIPRCNT: % Growth inhibition [4]: 49.4978%; GIPRCNT: % Growth inhibition [5]: 96.1%; GIPRCNT: % Growth inhibition [6]: 61.44%; GIPRCNT: % Growth inhibition [7]: 75.47%; GIPRCNT: % Growth inhibition [8]: 1.048%; GIPRCNT: % Growth inhibition [9]: 5.069%; GIPRCNT: % Growth inhibition (Ovarian Cancer, IGROV1): 78.33%; GIPRCNT: % Growth inhibition (Ovarian Cancer, NCI/ADR-RES): 76.12%; GIPRCNT: % Growth inhibition (Ovarian Cancer, OVCAR-3): −30.7372%; GIPRCNT: % Growth inhibition (Ovarian Cancer, OVCAR-4): 98.13%; GIPRCNT: % Growth inhibition (Ovarian Cancer, OVCAR-5): 91.29%; GIPRCNT: % Growth inhibition (Ovarian Cancer, OVCAR-8): 68.24%; GIPRCNT: % Growth inhibition (Ovarian Cancer, SK-OV-3): 86.95%; GIPRCNT: % Growth inhibition (Prostate Cancer, DU-145): 78.79%; GIPRCNT: % Growth inhibition (Prostate Cancer, PC-3): 69.52%; GIPRCNT: % Growth inhibition (Renal Cancer, 786-0): 73.41%; GIPRCNT: % Growth inhibition (Renal Cancer, A498): 46.17%; GIPRCNT: % Growth inhibition (Renal Cancer, ACHN): −86.4619%; GIPRCNT: % Growth inhibition (Renal Cancer, CAKI-1): 94.69%; GIPRCNT: % Growth inhibition (Renal Cancer, RXF 393): 45.96%; GIPRCNT: % Growth inhibition (Renal Cancer, SN12C): 78.47%; GIPRCNT: % Growth inhibition (Renal Cancer, TK-10): 90.98%; GIPRCNT: % Growth inhibition (Renal Cancer, UO-31): 69.07%

Q: Which “GIPRCNT: % Growth inhibition” value (Breast Cancer, BT-549) does the source give for `CCN(CC)CCCC(C)Nc1cnc(C(=O)Nc2cc(F)cc3cccnc23)cn1` (stereo not shown) [J17, 5-((5-(diethylamino)pentan-2-yl)amino)-N-(6-fluoroquinolin-8-yl)pyrazine-2-carboxamide] here?
A: 77.38%

Q: And the “GIPRCNT: % Growth inhibition” value (Breast Cancer, HS 578T)?
A: 69.28%

Q: What about the “GIPRCNT: % Growth inhibition” value (Breast Cancer, MCF7) of the same compound?
A: 2.311%

Q: And the “GIPRCNT: % Growth inhibition” value (Breast Cancer, MDA-MB-231/ATCC)?
A: 59.42%

Q: What about the “GIPRCNT: % Growth inhibition” value (Breast Cancer, MDA-MB-468) of the same compound?
A: 6.238%

Q: And the “GIPRCNT: % Growth inhibition” value (Breast Cancer, T-47D)?
A: 14.34%

Q: What about the “GIPRCNT: % Growth inhibition” value (CNS Cancer, SF-268) of the same compound?
A: 51.93%

Q: What about the “GIPRCNT: % Growth inhibition” value (CNS Cancer, SF-295) of the same compound?
A: 71.23%

Q: What about the “GIPRCNT: % Growth inhibition” value (CNS Cancer, SF-539) of the same compound?
A: 83.12%

Q: And the “GIPRCNT: % Growth inhibition” value (CNS Cancer, SNB-19)?
A: 83.09%

Q: What about the “GIPRCNT: % Growth inhibition” value (CNS Cancer, SNB-75) of the same compound?
A: 65.6595%

Q: What about the “GIPRCNT: % Growth inhibition” value (CNS Cancer, U251) of the same compound?
A: 50.2764%

Q: And the “GIPRCNT: % Growth inhibition” value (Colon Cancer, COLO 205)?
A: 3.108%

Q: And the “GIPRCNT: % Growth inhibition” value (Colon Cancer, HCC-2998)?
A: 66.69%

Q: What about the “GIPRCNT: % Growth inhibition” value (Colon Cancer, HCT-15) of the same compound?
A: 24.5%

Q: And the “GIPRCNT: % Growth inhibition” value (Colon Cancer, HCT-116)?
A: 9.52%

Q: What about the “GIPRCNT: % Growth inhibition” value (Colon Cancer, HT29) of the same compound?
A: 11.8%

Q: What about the “GIPRCNT: % Growth inhibition” value (Colon Cancer, KM12) of the same compound?
A: 75.34%

Q: And the “GIPRCNT: % Growth inhibition” value (Colon Cancer, SW-620)?
A: 24.3%

Q: And the “GIPRCNT: % Growth inhibition” value (Leukemia, CCRF-CEM)?
A: 19.66%

Q: What about the “GIPRCNT: % Growth inhibition” value (Leukemia, HL-60(TB)) of the same compound?
A: 85.54%

Q: What about the “GIPRCNT: % Growth inhibition” value (Leukemia, K-562) of the same compound?
A: 3.946%

Q: And the “GIPRCNT: % Growth inhibition” value (Leukemia, MOLT-4)?
A: 21.9615%

Q: What about the “GIPRCNT: % Growth inhibition” value (Leukemia, RPMI-8226) of the same compound?
A: 75.09%

Q: What about the “GIPRCNT: % Growth inhibition” value (Leukemia, SR) of the same compound?
A: 2.839%

Q: What about the “GIPRCNT: % Growth inhibition” value (Melanoma, LOX IMVI) of the same compound?
A: 33.27%

Q: What about the “GIPRCNT: % Growth inhibition” value (Melanoma, M14) of the same compound?
A: 21.9%

Q: And the “GIPRCNT: % Growth inhibition” value (Melanoma, MALME-3M)?
A: −8.343%

Q: What about the “GIPRCNT: % Growth inhibition” value (Melanoma, MDA-MB-435) of the same compound?
A: 25.54%

Q: And the “GIPRCNT: % Growth inhibition” value (Melanoma, SK-MEL-2)?
A: 96.72%

Q: What about the “GIPRCNT: % Growth inhibition” value (Melanoma, SK-MEL-5) of the same compound?
A: 69.98%

Q: What about the “GIPRCNT: % Growth inhibition” value (Melanoma, UACC-62) of the same compound?
A: 0.9972%

Q: And the “GIPRCNT: % Growth inhibition” value (Melanoma, UACC-257)?
A: 76.77%

Q: What about the “GIPRCNT: % Growth inhibition” value [1] of the same compound?
A: 58.01%

Q: What about the “GIPRCNT: % Growth inhibition” value [2] of the same compound?
A: 73.3%

Q: What about the “GIPRCNT: % Growth inhibition” value [3] of the same compound?
A: 64.08%

Q: And the “GIPRCNT: % Growth inhibition” value [4]?
A: 37.52%

Q: And the “GIPRCNT: % Growth inhibition” value [5]?
A: 81.37%

Q: What about the “GIPRCNT: % Growth inhibition” value [6] of the same compound?
A: 85.09%

Q: And the “GIPRCNT: % Growth inhibition” value [7]?
A: 63.8%

Q: And the “GIPRCNT: % Growth inhibition” value [8]?
A: 69.55%

Q: What about the “GIPRCNT: % Growth inhibition” value [9] of the same compound?
A: 52.69%

Q: And the “GIPRCNT: % Growth inhibition” value (Ovarian Cancer, IGROV1)?
A: 41.74%

Q: And the “GIPRCNT: % Growth inhibition” value (Ovarian Cancer, NCI/ADR-RES)?
A: 66.76%

Q: What about the “GIPRCNT: % Growth inhibition” value (Ovarian Cancer, OVCAR-3) of the same compound?
A: 5.413%

Q: What about the “GIPRCNT: % Growth inhibition” value (Ovarian Cancer, OVCAR-4) of the same compound?
A: 12.24%

Q: And the “GIPRCNT: % Growth inhibition” value (Ovarian Cancer, OVCAR-5)?
A: 77.12%

Q: And the “GIPRCNT: % Growth inhibition” value (Ovarian Cancer, OVCAR-8)?
A: 60.52%

Q: And the “GIPRCNT: % Growth inhibition” value (Ovarian Cancer, SK-OV-3)?
A: 98.32%

Q: And the “GIPRCNT: % Growth inhibition” value (Prostate Cancer, DU-145)?
A: 63.3%

Q: And the “GIPRCNT: % Growth inhibition” value (Prostate Cancer, PC-3)?
A: 60.96%

Q: What about the “GIPRCNT: % Growth inhibition” value (Renal Cancer, 786-0) of the same compound?
A: 68.3555%

Q: What about the “GIPRCNT: % Growth inhibition” value (Renal Cancer, A498) of the same compound?
A: 62.97%

Q: And the “GIPRCNT: % Growth inhibition” value (Renal Cancer, ACHN)?
A: 36.59%

Q: What about the “GIPRCNT: % Growth inhibition” value (Renal Cancer, CAKI-1) of the same compound?
A: 36.66%

Q: And the “GIPRCNT: % Growth inhibition” value (Renal Cancer, RXF 393)?
A: 33.77%

Q: And the “GIPRCNT: % Growth inhibition” value (Renal Cancer, SN12C)?
A: 54.47%

Q: And the “GIPRCNT: % Growth inhibition” value (Renal Cancer, TK-10)?
A: 63.68%

Q: What about the “GIPRCNT: % Growth inhibition” value (Renal Cancer, UO-31) of the same compound?
A: 29.1%

Reference: patent publication US20220081412A1, “QUINOLINYL-PYRAZINE-CARBOXAMIDE COMPOUNDS AND USES THEREOF” (The Regents of the University of Michigan, priority 2018, published 2022)
